Data from patent US20240366717A1 (priority 2020, published 2024).
Square brackets hold non-standard residues; d marks the D form. Ends that are not written are not given here.

Key:
[1] = Net peptide charge and isoelectric point as a function of pH; type: physicochemical; settings: pH 7
From the text: The peptide may be purified. For example, the peptide may be lyophilized. […] Other peptides are within the scope of the disclosure.
Exemplary peptides having a charge of +5 to +9 include […](d)[…], […](d)[…], and […](d)[…]. In other embodiments, the purified peptide may be substantially neutral. […] Net charge may be selected by peptide design. Design of electrostatic charge in the peptide hydrogel may allow control of charge interaction with cell membrane and proteins.

E. coli = assay: Antibacterial assay of PEPXR hydrogels, E. coli; type: cell-based; settings: evaluated against E. coli, S. aureus and P. aeruginosa
From the text: Thus, the peptide hydrogels described herein may generally comprise a high content of positively charged arginine (R) amino acids.

Substance	net charge [1]	antimicrobial activity (E. coli)
VEVSVSVEV(d)PPTEVSVEVEV	net negative charge	
VKVRVRVRVPPTRVRVRVKV (VKVRVRVRV[dP]PTRVRVRVKV-NH2) [PEP6R]		potent antimicrobial activity
